# Experimental data: patent US4797395A, “1-Acyloxyalkyl esters of cephalosporin” (Takeda Chemical Industries, Ltd., priority 1983, dated 1989)
# Where a name gives a salt, the structure may show the parent alone. Read-outs that look alike come from different tables or passages of the source.
# How the values were obtained:
# [1] = mouse, in vivo
# Experimental: The compounds of Examples (compound Nos. 1, 2, 3, 4, 5, 6, 7 and 8) and, as a control compound, the pivaloyloxymethyl ester of compound [II] (hereinafter referred to briefly as compound A) are administered orally to mice, each compound to one animal, in the dose of 100 mg/kg in terms of the non-ester, i.e. compound [II]. At 0.25, 0.5, 1.0 and 2.0 hours after administration, the concentration of compound [II] in the plasma of each mouse is measured by the cup method using Proteus mirabilis Eb 313 as the test organism and the area under plasma concentration-time curve from zero to 2 hours (AUC) is calculated. As a control, compound [II] is subcutaneously administered to a mouse and the AUC value is calculated as above. The bioavailability is calculated by means of the following equation. [formula]
# [2] = system: Klebsiella pneumoniae; details: gram-negative; Antimicrobial Agent and Chemotherapy 14, 557-568 (1978); cited from earlier work
# [3] = system: Staphylococcus aureus; details: gram-positive; Antimicrobial Agent and Chemotherapy 14, 557-568 (1978); cited from earlier work
# [4] = system: Proteus vulgaris; details: gram-negative; Antimicrobial Agent and Chemotherapy 14, 557-568 (1978); cited from earlier work
# [5] = system: Proteus mirabilis; details: gram-negative; Antimicrobial Agent and Chemotherapy 14, 557-568 (1978); cited from earlier work
# [6] = system: Proteus morganii; details: gram-negative; Antimicrobial Agent and Chemotherapy 14, 557-568 (1978); cited from earlier work
# [7] = system: Escherichia coli; details: gram-negative; Antimicrobial Agent and Chemotherapy 14, 557-568 (1978); cited from earlier work
"Bioavailability ([1]; 100 mg/kg, 120 min) [%]","Plasma level of non-ester (compound [II]), 0.25 hr ([1]; po, 100 mg/kg, 15 min) [ng/mL]","Plasma level of non-ester (compound [II]), 0.5 hr ([1]; po, 100 mg/kg, 30 min) [ng/mL]","Plasma level of non-ester (compound [II]), 1.0 hr ([1]; po, 100 mg/kg, 60 min) [ng/mL]","AUC ([1]; po, 100 mg/kg, 120 min) [ng·h/mL]","Plasma level of non-ester (compound [II]), 2.0 hr ([1]; po, 100 mg/kg, 120 min) [ng/mL]","Plasma level of non-ester (compound [II]), 0.25 hr ([1]; sc, 0.25 h) [ng/mL]","Plasma level of non-ester (compound [II]), 0.5 hr ([1]; sc, 0.5 h) [ng/mL]","Plasma level of non-ester (compound [II]), 1.0 hr ([1]; sc, 1 h) [ng/mL]","Bioavailability ([1]; sc, 120 min) [%]","Plasma level of non-ester (compound [II]), 2.0 hr ([1]; sc, 2 h) [ng/mL]",Compound,antibacterial activity [2],antibacterial activity [3],antibacterial activity [4],antibacterial activity [5],antibacterial activity [6],antibacterial activity [7]
86.4,59500,25000,11700,33500,1000,–,–,–,–,–,"CCC(OC(=O)C1=C(CSc2nnnn2CCN(C)C)CS[C@@H]2[C@H](NC(=O)Cc3csc(N)n3)C(=O)N12)OC(=O)C1CCCCC1.Cl.Cl (stereo partly drawn) [compound 3, 1-(Cyclohexylcarbonyloxy)propyl 7β-[2-(2-amino-thiazol-4-yl)acetamido]-3-[[[1-(2-dimethylaminoethyl) -1H-tetrazol-5-yl]thio]methyl]ceph-3-em-4-carboxylate dihydrochloride]",–,–,–,–,–,–
98.8,47000,38400,14400,38400,2800,–,–,–,–,–,"CCCC(OC(=O)C1=C(CSc2nnnn2CCN(C)C)CS[C@@H]2[C@H](NC(=O)Cc3csc(N)n3)C(=O)N12)OC(=O)C1CCCCC1.Cl.Cl (stereo partly drawn) [compound 4, 1-(Cyclohexylcarbonyloxy)butyl 7β-[2-(2-aminothiazol-4-yl)acetamido]-3-[[[1-(2-dimethylaminoethyl) -1H-tetrazol-5-yl]thio]methyl]ceph-3-em-4-carboxylate dihydrochloride]",–,–,–,–,–,–
41.8,21000,16200,6100,–,600,–,–,–,–,–,"CN(C)CCn1nnnc1SCC1=C(C(=O)OCOC(=O)C(C)(C)C)N2C(=O)[C@@H](NC(=O)Cc3csc(N)n3)[C@H]2SC1 [compound A, reference compound]",–,–,–,–,–,–
–,–,–,–,–,–,69200,29000,13200,100,1500,CN(C)CCn1nnnc1SCC1=C(C(=O)O)N2C(=O)[C@@H](NC(=O)Cc3csc(N)n3)[C@H]2SC1 [compound [II]],potent antibacterial activity,potent antibacterial activity,potent antibacterial activity,potent antibacterial activity,potent antibacterial activity,potent antibacterial activity

# The next lines start with the molecule.
Compound,"Bioavailability ([1]; 100 mg/kg, 120 min) [%]","Plasma level of non-ester (compound [II]), 0.25 hr ([1]; po, 100 mg/kg, 15 min) [ng/mL]","Plasma level of non-ester (compound [II]), 0.5 hr ([1]; po, 100 mg/kg, 30 min) [ng/mL]","Plasma level of non-ester (compound [II]), 1.0 hr ([1]; po, 100 mg/kg, 60 min) [ng/mL]","AUC ([1]; po, 100 mg/kg, 120 min) [ng·h/mL]","Plasma level of non-ester (compound [II]), 2.0 hr ([1]; po, 100 mg/kg, 120 min) [ng/mL]","Plasma level of non-ester (compound [II]), 0.25 hr ([1]; sc, 0.25 h) [ng/mL]","Plasma level of non-ester (compound [II]), 0.5 hr ([1]; sc, 0.5 h) [ng/mL]","Plasma level of non-ester (compound [II]), 1.0 hr ([1]; sc, 1 h) [ng/mL]","Bioavailability ([1]; sc, 120 min) [%]","Plasma level of non-ester (compound [II]), 2.0 hr ([1]; sc, 2 h) [ng/mL]",antibacterial activity [2],antibacterial activity [3],antibacterial activity [4],antibacterial activity [5],antibacterial activity [6],antibacterial activity [7]
"CC(C)C(OC(=O)C1=C(CSc2nnnn2CCN(C)C)CS[C@@H]2[C@H](NC(=O)Cc3csc(N)n3)C(=O)N12)OC(=O)C1CCCCC1.Cl.Cl (stereo partly drawn) [Compound No. 1, 1-(Cyclohexylcarbonyloxy)-2-methylpropyl 7β-[2-(2-aminothiazol-4-yl)acetamido]-3-[[[1-(2-dimethylaminoethyl) -1H-tetrazol-5-yl]thio]methyl]ceph-3-em-4-carboxylate dihydrochloride]",94.4,66300,34500,8900,36600,900,–,–,–,–,–,–,–,–,–,–,–
"CCCCC(=O)OC(OC(=O)C1=C(CSc2nnnn2CCN(C)C)CS[C@@H]2[C@H](NC(=O)Cc3csc(N)n3)C(=O)N12)C1CCCCC1.Cl.Cl (stereo partly drawn) [Compound No. 7, 1-n-Pentanoyloxy-1-cyclohexylmethyl 7β-[2-(2-aminothiazol-4-yl)acetamido]-3-[[[1-(2-dimethylaminoethyl)-1H-tetrazol-5-yl]thio]methyl]ceph-3-em-4-carboxylate dihydrochloride]",88.9,36400,30000,17000,34500,3200,–,–,–,–,–,–,–,–,–,–,–
"CCCC(=O)OC(OC(=O)C1=C(CSc2nnnn2CCN(C)C)CS[C@@H]2[C@H](NC(=O)Cc3csc(N)n3)C(=O)N12)C1CCCCC1 (stereo partly drawn) [Compound No. 8, 1-n-Butyryloxy-1-cyclohexylmethyl 7β-[2-(2-aminothiazol-4-yl)acetamido]-3-[[[1-(2-dimethylaminoethyl) -1H-tetrazol-5-yl]thio]methyl]ceph-3-em-4-carboxylate dihydrochloride]",103.5,50000,39600,15600,40200,2330,–,–,–,–,–,–,–,–,–,–,–
"CN(C)CCn1nnnc1SCC1=C(C(=O)OC(OC(=O)C2CCCCC2)C2CCCCC2)N2C(=O)[C@@H](NC(=O)Cc3csc(N)n3)[C@H]2SC1.Cl.Cl (stereo partly drawn) [compound 2, 1-(Cyclohexylcarbonyloxy)-1-cyclohexylmethyl 7β-[2-(2-aminothiazol-4-yl)acetamido]-3-[[[1-(2-dimethylaminoethyl) -1H-tetrazol-5-yl]thio]methyl]ceph-3-em-4-carboxylate dihydrochloride]",107.8,46100,32200,21200,41900,4700,–,–,–,–,–,–,–,–,–,–,–
"CC(C)C(OC(=O)CC1CCCCC1)OC(=O)C1=C(CSc2nnnn2CCN(C)C)CS[C@@H]2[C@H](NC(=O)Cc3csc(N)n3)C(=O)N12.Cl.Cl (stereo partly drawn) [compound 5, 1-(Cyclohexylacetoxy)-2-methylpropyl 7β-[2-(2-aminothiazol-4-yl)acetamido]-3-[[[1-(2-dimethylaminoethyl) 1H-tetrazol-5-yl]thio]methyl]ceph-3-em-4-carboxylate dihydrochloride]",88.8,29200,46700,11100,34500,2600,–,–,–,–,–,–,–,–,–,–,–
